The solubility is how much of the substance goes into solution per volume.

We go through 9 compounds from patent US11217811B2, “Unique redox-active phenothiazine combinations with depressed melting points for increased solubility and method of use in energy storage and in redox flow batteries” (University of Kentucky Research Foundation, priority 2019, dated 2022).

Converted amounts (≈) assume the structure as drawn. Like-named read-outs stand apart in the source and are kept apart here.

This series in a line: Solubility in acetonitrile, determined by 1H NMR spectroscopy. It counts as physicochemical. As for the experimental part:
The solubility of each of such mixtures was determined according to the following procedure: acetonitrile was added to the vials containing the samples in aliquots ranging from 0.1 to 1 mL; after every aliquot of solvent was added, each sample was shaken, sonicated, and lightly warmed up with a heat gun (about 40° C.); if the suspended solid persisted, another aliquot was added, and the process repeated until a clear solution was obtained. The warm solution was left to cool down to room temperature: if any solid formed, more solvent was added, and the process repeated until the solution remained clear indefinitely. The solubility was then determined using ^1H NMR spectroscopy. […] The results are summarized in Table 1: in both the cases examined, the solubility of EPT increased substantially when mixed with MEPT.

The mark [1] stands for this setting: organic solvent or mixture, thermodynamic from solid, pure compound in acetonitrile, room temperature, read-out: Solubility of the single component.
[2] abbreviates: pure compound in acetonitrile, room temperature.
Where [3] appears, read: acetonitrile, RPT-TFSI and the corresponding binary blend.

Consider `CCN1c2ccccc2Sc2ccccc21` [EPT, N-ethylphenothiazine], for which the solubility under setting [1] stood at 110 mM (≈ 25 mg/mL).

Take `CCN1c2ccccc2[S+]c2ccccc21.F[B-](F)(F)F` [EPT-BF4, EPT-tetrafluoroborate]: the “Solubility of the single component” value under setting [2] turned out to be 0.33 mol/L. With `CCN1c2ccccc2[S+]c2ccccc21.O=S(=O)([N-]S(=O)(=O)C(F)(F)F)C(F)(F)F` [EPT-TFSI, EPT-bis(trifluoromethanesulfonyl)imide], the solubility under setting [3] came out at 370 mM. `COCCN1c2ccccc2Sc2ccccc21` [MEPT, N-(2-methoxyethyl)phenothiazine]: the Miscibility in acetonitrile result (acetonitrile) is recorded as “miscible in acetonitrile in all ratios”. Regarding `COCCN1c2ccccc2[S+]c2ccccc21.F[B-](F)(F)F` [MEPT-BF4, MEPT-tetrafluoroborate], under setting [2], the “Solubility of the single component” value came to 0.31 mol/L. `CN1c2ccccc2Sc2ccccc21` [MPT, N-methylphenothiazine]: the solubility under setting [1] was determined as 240 mM (≈ 51.2 mg/mL). Consider `CN1c2ccccc2[S+]c2ccccc21.O=S(=O)([N-]S(=O)(=O)C(F)(F)F)C(F)(F)F` [MPT-TFSI, MPT-bis(trifluoromethanesulfonyl)imide], for which the solubility under setting [3] turned out to be 1500 mM. For the compound `c1ccc(N2c3ccccc3Sc3ccccc32)cc1` [PhPT, N-phenylphenothiazine], the solubility under setting [1] amounted to 140 mM (≈ 38.6 mg/mL). For the compound `O=S(=O)([N-]S(=O)(=O)C(F)(F)F)C(F)(F)F.c1ccc(N2c3ccccc3[S+]c3ccccc32)cc1` [PhPT-TFSI, PhPT-bis(trifluoromethanesulfonyl)imide], the solubility under setting [3] came out at 1640 mM.
